# From PubChem BioAssay AID2060599 (Molecular Pharmacology Branch, DTP, NCI, 2025)
# Test system: 817829-284-R-J1-PDC complex spheroids, viability
# Assay: Anticancer human tumor 817829-284-R-J1-PDC patient-derived colon adenocarcinoma cell line growth inhibition [CLK]
# Conditions: for IC50: curve of first compound; for viability, T/C: stronger effect = lower value
# Method in brief: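 Multi-cell-type spheroids combined patient-derived tumor cells with HUVEC endothelial cells and human mesenchymal stem cells. Paired agents were dosed in half-log steps down from about clinical Cmax, or from 10 microM where Cmax was unknown.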
# [1] = second compound 0.0316 µM, first compound 0.0316 µM
# [2] = second compound 0.0316 µM, first compound 0.1 µM
# [3] = second compound 0.0316 µM, first compound 0.316 µM
# [4] = second compound 0.0316 µM, first compound 1 µM
# [5] = second compound 0.0316 µM, first compound 3.16 µM
# [6] = second compound 0.0316 µM, first compound 10 µM
# [7] = second compound 0.1 µM, first compound 0.0316 µM
# [8] = second compound 0.1 µM, first compound 0.1 µM
# [9] = second compound 0.1 µM, first compound 0.316 µM
# [10] = second compound 0.1 µM, first compound 1 µM
# [11] = second compound 0.1 µM, first compound 3.16 µM
# [12] = second compound 0.1 µM, first compound 10 µM
# [13] = second compound 0.316 µM, first compound 0.0316 µM
# [14] = second compound 0.316 µM, first compound 0.1 µM
# [15] = second compound 0.316 µM, first compound 0.316 µM
# [16] = second compound 0.316 µM, first compound 1 µM
# [17] = second compound 0.316 µM, first compound 3.16 µM
# [18] = second compound 0.316 µM, first compound 10 µM
# [19] = second compound 1 µM, first compound 0.0316 µM
# [20] = second compound 1 µM, first compound 0.1 µM
# [21] = second compound 1 µM, first compound 0.316 µM
# [22] = second compound 1 µM, first compound 1 µM
# [23] = second compound 1 µM, first compound 3.16 µM
# [24] = second compound 1 µM, first compound 10 µM
# [25] = second compound 3.16 µM, first compound 0.0316 µM
# [26] = second compound 3.16 µM, first compound 0.1 µM
# [27] = second compound 3.16 µM, first compound 0.316 µM
# [28] = second compound 3.16 µM, first compound 1 µM
# [29] = second compound 3.16 µM, first compound 3.16 µM
# [30] = second compound 3.16 µM, first compound 10 µM
# [31] = second compound 10 µM, first compound 0.0316 µM
# [32] = second compound 10 µM, first compound 0.1 µM
# [33] = second compound 10 µM, first compound 0.316 µM
# [34] = second compound 10 µM, first compound 1 µM
# [35] = second compound 10 µM, first compound 3.16 µM
# [36] = second compound 10 µM, first compound 10 µM
# 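Note: spheroids exposed to the agents for seven days before readout.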
smiles,measurement,setting,value
CC(=O)O[C@H]1C(=O)[C@@]2(C)[C@H]([C@H](OC(=O)c3ccccc3)[C@]3(O)C[C@H](OC(=O)[C@H](O)[C@@H](NC(=O)c4ccccc4)c4ccccc4)C(C)=C1C3(C)C)[C@]1(OC(C)=O)CO[C@@H]1C[C@@H]2O + CNC(=O)c1ccc(Nc2nc(OC3CCCC3)c3c(-c4ccc5nc(C)oc5c4)c[nH]c3n2)c(OC)c1,IC50,second compound 0.0316 µM,< 0.0316 µM
same,IC50,second compound 0.1 µM,< 0.0316 µM
same,IC50,second compound 0.316 µM,< 0.0316 µM
same,IC50,second compound 1 µM,< 0.0316 µM
same,IC50,second compound 3.16 µM,< 0.0316 µM
same,IC50,second compound 10 µM,< 0.0316 µM
same,"viability, T/C",[1],10.8%
same,"viability, T/C",[2],11.5%
same,"viability, T/C",[3],10.8%
same,"viability, T/C",[4],10.6%
same,"viability, T/C",[5],11.6%
same,"viability, T/C",[6],16.2%
same,"viability, T/C",[7],24.2%
same,"viability, T/C",[8],25.3%
same,"viability, T/C",[9],20.2%
same,"viability, T/C",[10],23.8%
same,"viability, T/C",[11],28.9%
same,"viability, T/C",[12],26.8%
same,"viability, T/C",[13],29.5%
same,"viability, T/C",[14],31.6%
same,"viability, T/C",[15],43.8%
same,"viability, T/C",[16],38.9%
same,"viability, T/C",[17],45.1%
same,"viability, T/C",[18],32.6%
same,"viability, T/C",[19],31.7%
same,"viability, T/C",[20],23.7%
same,"viability, T/C",[21],24%
same,"viability, T/C",[22],30.4%
same,"viability, T/C",[23],22.6%
same,"viability, T/C",[24],22.8%
same,"viability, T/C",[25],26.2%
same,"viability, T/C",[26],23.9%
same,"viability, T/C",[27],17.7%
same,"viability, T/C",[28],20.1%
same,"viability, T/C",[29],23.3%
same,"viability, T/C",[30],23.3%
same,"viability, T/C",[31],18.6%
same,"viability, T/C",[32],23.3%
same,"viability, T/C",[33],29.5%
same,"viability, T/C",[34],24.3%
same,"viability, T/C",[35],20.5%
same,"viability, T/C",[36],19.9%
CCc1c2c(nc3ccc(O)cc13)-c1cc3c(c(=O)n1C2)COC(=O)[C@]3(O)CC + CNC(=O)c1ccc(Nc2nc(OC3CCCC3)c3c(-c4ccc5nc(C)oc5c4)c[nH]c3n2)c(OC)c1,IC50,second compound 0.0316 µM,< 0.00316 µM
same,IC50,second compound 0.1 µM,< 0.00316 µM
same,IC50,second compound 0.316 µM,< 0.00316 µM
same,IC50,second compound 1 µM,< 0.00316 µM
same,IC50,second compound 3.16 µM,< 0.00316 µM
same,IC50,second compound 10 µM,< 0.00316 µM
same,"viability, T/C","second compound 0.0316 µM, first compound 0.00316 µM",18.9%
same,"viability, T/C","second compound 0.0316 µM, first compound 0.01 µM",16.6%
same,"viability, T/C",[1],13.2%
same,"viability, T/C",[2],9.4%
same,"viability, T/C",[3],6.53%
same,"viability, T/C",[4],4.13%
same,"viability, T/C","second compound 0.1 µM, first compound 0.00316 µM",21.3%
same,"viability, T/C","second compound 0.1 µM, first compound 0.01 µM",17.2%
same,"viability, T/C",[7],13.2%
same,"viability, T/C",[8],9.71%
same,"viability, T/C",[9],7.28%
same,"viability, T/C",[10],4.24%
same,"viability, T/C","second compound 0.316 µM, first compound 0.00316 µM",17.3%
same,"viability, T/C","second compound 0.316 µM, first compound 0.01 µM",17%
same,"viability, T/C",[13],13%
same,"viability, T/C",[14],7.86%
same,"viability, T/C",[15],5.8%
same,"viability, T/C",[16],3.35%
same,"viability, T/C","second compound 1 µM, first compound 0.00316 µM",15.2%
same,"viability, T/C","second compound 1 µM, first compound 0.01 µM",12.4%
same,"viability, T/C",[19],7.9%
same,"viability, T/C",[20],5.92%
same,"viability, T/C",[21],4.02%
same,"viability, T/C",[22],2.78%
same,"viability, T/C","second compound 3.16 µM, first compound 0.00316 µM",13.2%
same,"viability, T/C","second compound 3.16 µM, first compound 0.01 µM",9.13%
same,"viability, T/C",[25],6.71%
same,"viability, T/C",[26],6.34%
same,"viability, T/C",[27],4.45%
same,"viability, T/C",[28],2.73%
same,"viability, T/C","second compound 10 µM, first compound 0.00316 µM",11.9%
same,"viability, T/C","second compound 10 µM, first compound 0.01 µM",8.01%
same,"viability, T/C",[31],7.69%
same,"viability, T/C",[32],4.85%
same,"viability, T/C",[33],4.44%
same,"viability, T/C",[34],2.57%
Nc1ccn(C2OC(CO)C(O)C2(F)F)c(=O)n1 (stereo not drawn) + CNC(=O)c1ccc(Nc2nc(OC3CCCC3)c3c(-c4ccc5nc(C)oc5c4)c[nH]c3n2)c(OC)c1,IC50,second compound 0.0316 µM,< 0.0316 µM
same,IC50,second compound 0.1 µM,< 0.0316 µM
same,IC50,second compound 0.316 µM,< 0.0316 µM
same,IC50,second compound 1 µM,< 0.0316 µM
same,IC50,second compound 3.16 µM,< 0.0316 µM
same,IC50,second compound 10 µM,< 0.0316 µM
same,"viability, T/C",[1],7.4%
same,"viability, T/C",[2],6.76%
same,"viability, T/C",[3],7.11%
same,"viability, T/C",[4],7.29%
same,"viability, T/C",[5],5.09%
same,"viability, T/C",[6],3.92%
same,"viability, T/C",[7],8.05%
same,"viability, T/C",[8],6.31%
same,"viability, T/C",[9],5.97%
same,"viability, T/C",[10],5.9%
same,"viability, T/C",[11],5.26%
same,"viability, T/C",[12],3.21%
same,"viability, T/C",[13],8.92%
same,"viability, T/C",[14],6.1%
same,"viability, T/C",[15],7.05%
same,"viability, T/C",[16],4.87%
same,"viability, T/C",[17],4.82%
same,"viability, T/C",[18],2.7%
same,"viability, T/C",[19],6.66%
same,"viability, T/C",[20],4.92%
same,"viability, T/C",[21],5.51%
same,"viability, T/C",[22],5.11%
same,"viability, T/C",[23],3.64%
same,"viability, T/C",[24],2.55%
same,"viability, T/C",[25],6.07%
same,"viability, T/C",[26],5.26%
same,"viability, T/C",[27],4.97%
same,"viability, T/C",[28],4.56%
same,"viability, T/C",[29],3.52%
same,"viability, T/C",[30],3.21%
same,"viability, T/C",[31],7.94%
same,"viability, T/C",[32],5.03%
same,"viability, T/C",[33],4.94%
same,"viability, T/C",[34],4.81%
same,"viability, T/C",[35],4.26%
same,"viability, T/C",[36],2.75%
O=c1[nH]cc(F)c(=O)[nH]1 + CNC(=O)c1ccc(Nc2nc(OC3CCCC3)c3c(-c4ccc5nc(C)oc5c4)c[nH]c3n2)c(OC)c1,IC50,second compound 0.0316 µM,< 0.0316 µM
same,IC50,second compound 0.1 µM,< 0.0316 µM
same,IC50,second compound 0.316 µM,< 0.0316 µM
same,IC50,second compound 1 µM,< 0.0316 µM
same,IC50,second compound 3.16 µM,< 0.0316 µM
same,IC50,second compound 10 µM,< 0.0316 µM
same,"viability, T/C",[1],37.3%
same,"viability, T/C",[2],39.1%
same,"viability, T/C",[3],24.6%
same,"viability, T/C",[4],38.4%
same,"viability, T/C",[5],29.1%
same,"viability, T/C",[6],22.6%
same,"viability, T/C",[7],19.2%
same,"viability, T/C",[8],24%
same,"viability, T/C",[9],22.7%
same,"viability, T/C",[10],22.6%
same,"viability, T/C",[11],18.5%
same,"viability, T/C",[12],17.6%
same,"viability, T/C",[13],17.6%
same,"viability, T/C",[14],26.6%
same,"viability, T/C",[15],17.4%
same,"viability, T/C",[16],23.1%
same,"viability, T/C",[17],15%
same,"viability, T/C",[18],12.6%
same,"viability, T/C",[19],17.2%
same,"viability, T/C",[20],16.8%
same,"viability, T/C",[21],16.9%
same,"viability, T/C",[22],11.3%
same,"viability, T/C",[23],13.3%
same,"viability, T/C",[24],7%
same,"viability, T/C",[25],18.9%
same,"viability, T/C",[26],20.1%
same,"viability, T/C",[27],13.6%
same,"viability, T/C",[28],14.7%
same,"viability, T/C",[29],10.8%
same,"viability, T/C",[30],7.07%
same,"viability, T/C",[31],20.7%
same,"viability, T/C",[32],22.1%
same,"viability, T/C",[33],17.8%
same,"viability, T/C",[34],11.7%
same,"viability, T/C",[35],7.79%
same,"viability, T/C",[36],7.22%
